Source: patent US20060128724A1, “Pyrazole-substituted aminoheteroaryl compounds as protein kinase inhibitors” (AGOURON PHARMACEUTICALS, INC., priority 2004, published 2006)

Target: T1, c-MET (HGFR) (Homo sapiens, UniProt P08581)
T1 construct: purchased Upstate 14-526
Test: HGFR Continuous-Coupled Spectrophotometric Assay
Assay type: biochemical
Details: Met-2 substrate peptide, 50 nM HGFR, 37° C.; read-out: Met Ki
In short: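 Tyrosine kinase activity of 50 nM HGFR on the activation-loop Met-2 peptide, followed as NADH consumption at 340 nm over 10 min at 37 °C in a pyruvate kinase/LDH coupled system, HEPES pH 7.5 buffer with MgCl2 and DTT.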

T1 sequence (P08581 974-1390 limits assumed): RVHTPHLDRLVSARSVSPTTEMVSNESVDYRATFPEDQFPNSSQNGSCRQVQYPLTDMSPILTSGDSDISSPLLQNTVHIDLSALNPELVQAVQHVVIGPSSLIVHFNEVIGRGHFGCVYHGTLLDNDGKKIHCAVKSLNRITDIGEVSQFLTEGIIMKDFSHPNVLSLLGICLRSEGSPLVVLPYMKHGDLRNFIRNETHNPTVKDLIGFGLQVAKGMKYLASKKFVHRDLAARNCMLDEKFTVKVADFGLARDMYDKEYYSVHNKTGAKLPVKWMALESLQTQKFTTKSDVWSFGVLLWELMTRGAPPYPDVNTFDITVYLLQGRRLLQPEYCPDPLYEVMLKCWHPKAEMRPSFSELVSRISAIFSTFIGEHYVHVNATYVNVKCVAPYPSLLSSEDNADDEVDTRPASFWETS

Row | Ki | SMILES
1 | 42 nM | CC(Oc1cc(-c2cnn(C3CCNCC3)c2)cnc1N)c1c(Cl)ccc(O)c1Cl (stereo not drawn) [Example 136, 3-{1-[2-Amino-5-(1-piperidin-4-yl-1H-pyrazol-4-yl)-pyridin-3-yloxy]-ethyl}-2,4-dichloro-phenol]
2 | 10 nM | COc1ccc(Cl)c(C(C)Oc2cc(-c3cnn(C4CCNCC4)c3)cnc2N)c1Cl (stereo not drawn) [Example 138, 3-(1-(2,6-Dichloro-3-methoxy-phenyl)-ethoxy]-5-(1-piperidin-4-yl-1H-pyrazol-4-yl)-pyridin-2-ylamine]
3 | 22 nM | CCOc1ccc(Cl)c(C(C)Oc2cc(-c3cnn(C4CCNCC4)c3)cnc2N)c1Cl (stereo not drawn) [Example 139]
4 | 37 nM | CC(C)Oc1ccc(Cl)c(C(C)Oc2cc(-c3cnn(C4CCNCC4)c3)cnc2N)c1Cl (stereo not drawn) [Example 140, 3-[1-(2,6-Dichloro-3-isopropoxy-phenyl)-ethoxy]-5-(1-piperidin-4-yl-1H-pyrazol-4-yl)-pyridin-2-ylamine]
5 | 44 nM | COCCOc1ccc(Cl)c(C(C)Oc2cc(-c3cnn(C4CCNCC4)c3)cnc2N)c1Cl (stereo not drawn) [Example 141, 3-{1-(2,6-Dichloro-3-(2-methoxy-ethoxy)-phenyl]-ethoxy}-5-(1-piperidin-4-yl-1H-pyrazol-4-yl)-pyridin-2-ylamine]
6 | 2510 nM | Cc1ccc(Cl)c(C(C)Oc2cc(Br)cnc2N)c1Cl (stereo not drawn) [Example 142, 5-Bromo-3-[1-(2,6-dichloro-3-methyl-phenyl)ethoxy]-pyridin-2-ylamine]
7 | 22 nM | Cc1ccc(Cl)c(C(C)Oc2cc(-c3cnn(C4CCNCC4)c3)cnc2N)c1Cl (stereo not drawn) [Example 143, 3-[1-(2,6-Dichloro-3-methyl-phenyl)-ethoxy]-5-(1-piperidin-4-yl-1H-pyrazol-4-yl)-pyridin-2-ylamine]
8 | 587 nM | CC(Oc1cc(-c2cnn(C3CCNCC3)c2)cnc1N)c1cc(F)cc(F)c1Cl (stereo not drawn) [Example 144, 3-[1-(2-Chloro-3,5-difluoro-phenyl)-ethoxy]-5-(1-piperidin-4-yl-1H-pyrazol-4-yl)-pyridin-2-ylamine]
9 | 30 nM | CC(Oc1cc(Br)cnc1N)c1c(Cl)c(F)cc(F)c1Cl (stereo not drawn) [Example 145, 5-Bromo-3-[1-(2,6-dichloro-3,5-difluoro-phenyl)-ethoxy]-pyridin-2-ylamine]
10 | 30 nM | CC(Oc1cc(-c2cnn(C3CCNCC3)c2)cnc1N)c1c(Cl)c(F)cc(F)c1Cl (stereo not drawn) [Example 146, 3-[1-(2,6-Dichloro-3,5-difluoro-phenyl)-ethoxy]-5-(1-piperidin-4-yl-1H-pyrazol-4-yl)-pyridin-2-ylamine]
11 | 30 nM | CC(Oc1cc(-c2cnn(C3CCNCC3)c2)cnc1N)c1c(Cl)c(O)cc(F)c1Cl (stereo not drawn) [Example 147, 3-{1-[2-Amino-5-(1-piperidin-4-yl-1H-pyrazol-4-yl)-pyridin-3-yloxy]ethyl}-2,4-dichloro-5-fluoro-phenol]
12 | 23 nM | COc1cc(F)c(Cl)c(C(C)Oc2cc(-c3cnn(C4CCNCC4)c3)cnc2N)c1Cl (stereo not drawn) [Example 148, 3-[1-(2,6-Dichloro-3-fluoro-5-methoxy-phenyl)-ethoxy]-5-(1-peridin-4-yl-1H-pyrazol-4-yl)-pyridin-ylamine]
13 | 72 nM | CC(Oc1cc(-c2cnn(C)c2)cnc1N)c1c(Cl)c(F)cc(F)c1Cl (stereo not drawn) [Example 149, 3-[1-(2,6-Dichloro-3,5-difluoro-phenyl)-ethoxy]-5-(1-methyl-1H-pyrazol-4-yl)-pyridin-2-ylamine]
14 | 163 nM | CC(Oc1cc(-c2cnn(C3CCNCC3)c2)cnc1N)c1c(Cl)c(F)cc(N(C)C)c1Cl (stereo not drawn) [Example 150, 3-[1-(2,6-Dichloro-3-dimethylamino-5-fluoro-phenyl)-ethoxy]-5-(1-piperidin-4-yl-1H-pyrazol-4-yl)-pyridin-2-ylamine]
15 | 25 nM | CC(Oc1cc(-c2cnn(C)c2)cnc1N)c1c(Cl)c(F)cc(OC2CCNCC2)c1Cl (stereo not drawn) [Example 151, 3-{1-[2,6-Dichloro-3-fluoro-5-(piperidin-4-yloxy)-phenyl]-ethoxy]-5-(1-methyl-1H-pyrazol-4-yl)-pyridin-2-ylamine]
16 | 32 nM | CC(Oc1cc(-c2cnn(C)c2)cnc1N)c1c(Cl)c(F)cc(O[C@@H]2CCNC2)c1Cl (stereo partly drawn) [Example 152, 3-{1-[2,6-Dichloro-3-fluoro-5-(pyrrolidin-3R-yloxy)-phenyl]-ethoxy}-5-(1-methyl-1H-pyrazol-4-yl)-pyridin-2-ylamine]
17 | 805 nM | CC(Oc1cc(Br)cnc1N)c1c(Cl)c(F)cc(OCCN(C)C)c1Cl (stereo not drawn) [Example 153, 5-Bromo-3-{1-[2,6-dichloro-3-(2-dimethylamino-ethoxy)-5-fluoro-phenyl]-ethoxy}-pyridin-2-ylamine]
18 | 105 nM | COc1cc(Cl)c(C(C)Oc2cc(-c3cnn(C4CCNCC4)c3)cnc2N)c(Cl)c1OC (stereo not drawn) [Example 154, 3-(1-(2,6-Dichloro-3-dimethoxy-phenyl)-ethoxy]-5-(1-piperidin-4-yl-1H-pyrazol-4-yl)-pyridin-2-ylamine]
19 | 29 nM | CC(Oc1cc(-c2cnn(C)c2)cnc1N)c1c(Cl)c(F)cc(OC2CNC2)c1Cl (stereo not drawn) [Example 155, 3-{1-[3-(Azetidin-3-yloxy)-2,6-dichloro-5-fluoro-phenyl]-ethoxy}-5-(1-methyl-1H-pyrazol-4-yl)-pyridin-2-ylamine]
20 | 36 nM | CC(Oc1cc(-c2cnn(C)c2)cnc1N)c1c(Cl)c(F)cc(OC2CCCNC2)c1Cl (stereo not drawn) [Example 156, 3-{1-(2,6-Dichloro-3-fluoro-5-(piperidin-3-yloxy)-phenyl]-ethoxy}-5-(1-methyl-1H-pyrazol-4-yl)-pyridin-2-ylamine]
21 | 51 nM | CC(Oc1cc(-c2cnn(C3CCNCC3)c2)cnc1N)c1c(Cl)c(F)cc(N2CCCC2=O)c1Cl (stereo not drawn) [Example 157, 1-(3-{1-[2-Amino-5-(1-piperidin-4-yl-1H-pyrazol-4-yl)-pyridin-3-yloxy]-ethyl]-2,4-dichloro-5-fluoro-phenyl)-pyrrolidin-2-one]
